Data: ChEMBL document CHEMBL3046559, “Sterile oat (Avena sterilis L.) cross-resistance profile to ACCase-inhibiting herbicides in Greece” (2012)

What was measured:
Type in all cases: functional
Avena sterilis [1] = experiment: Herbicidal activity against Avena sterilis accession P08 assessed as weed survival at 32 times field recommended herbicide dose
Avena sterilis [2] = experiment: Herbicidal activity against Avena sterilis accession P10S assessed as weed survival at 1/4 times field recommended herbicide dose
Avena sterilis [3] = experiment: Herbicidal activity against Avena sterilis accession P07 assessed as weed survival at 4 times field recommended herbicide dose
Avena sterilis [4] = experiment: Herbicidal activity against Avena sterilis accession P11 assessed as weed survival at 32 times field recommended herbicide dose
Avena sterilis [5] = experiment: Herbicidal activity against Avena sterilis accession P17 assessed as weed survival at 8 times field recommended herbicide dose
Avena sterilis [6] = experiment: Herbicidal activity against Avena sterilis accession P09 assessed as induction of weed mortality
Avena sterilis [7] = experiment: Herbicidal activity against Avena sterilis accession P09 assessed as weed survival at 32 times field recommended herbicide dose
Avena sterilis [8] = experiment: Herbicidal activity against Avena sterilis accession P14 assessed as weed survival at 1 times field recommended herbicide dose
Avena sterilis [9] = experiment: Herbicidal activity against Avena sterilis accession P10S assessed as weed survival at 1/32 times field recommended herbicide dose
Avena sterilis [10] = experiment: Herbicidal activity against Avena sterilis accession P15 assessed as induction of weed mortality
Avena sterilis [11] = experiment: Herbicidal activity against Avena sterilis accession P09 assessed as weed survival at 1 times field recommended herbicide dose
Avena sterilis [12] = experiment: Herbicidal activity against Avena sterilis accession P18 assessed as weed survival at 1 times field recommended herbicide dose
Avena sterilis [13] = experiment: Herbicidal activity against Avena sterilis accession P06S assessed as weed survival at 1/8 times field recommended herbicide dose
Avena sterilis [14] = experiment: Herbicidal activity against Avena sterilis accession P12 assessed as induction of weed mortality
Avena sterilis [15] = experiment: Herbicidal activity against Avena sterilis accession P10S assessed as induction of weed mortality
Avena sterilis [16] = experiment: Herbicidal activity against Avena sterilis accession P22 assessed as weed survival at 4 times field recommended herbicide dose
Avena sterilis [17] = experiment: Herbicidal activity against Avena sterilis accession P15 assessed as weed survival at 1 times field recommended herbicide dose
Avena sterilis [18] = experiment: Herbicidal activity against Avena sterilis accession P13S assessed as weed survival at 1 times field recommended herbicide dose
Avena sterilis [19] = experiment: Herbicidal activity against Avena sterilis accession P17 assessed as induction of weed mortality
Avena sterilis [20] = experiment: Herbicidal activity against Avena sterilis accession P21S assessed as weed survival at 1 times field recommended herbicide dose
Avena sterilis [21] = experiment: Herbicidal activity against Avena sterilis accession P02 assessed as induction of weed mortality
Avena sterilis [22] = experiment: Herbicidal activity against Avena sterilis accession P07 assessed as weed survival at 1 times field recommended herbicide dose
Avena sterilis [23] = experiment: Herbicidal activity against Avena sterilis accession P13S assessed as weed survival at 1/8 times field recommended herbicide dose
Avena sterilis [24] = experiment: Herbicidal activity against Avena sterilis accession P18 assessed as induction of weed mortality
Avena sterilis [25] = experiment: Herbicidal activity against Avena sterilis accession P17 assessed as weed survival at 4 times field recommended herbicide dose
Avena sterilis [26] = experiment: Herbicidal activity against Avena sterilis accession P05 assessed as induction of weed mortality
Avena sterilis [27] = experiment: Herbicidal activity against Avena sterilis accession P11 assessed as weed survival at 1 times field recommended herbicide dose
Avena sterilis [28] = experiment: Herbicidal activity against Avena sterilis accession P05 assessed as weed survival at 8 times field recommended herbicide dose
Avena sterilis [29] = experiment: Herbicidal activity against Avena sterilis accession P15 assessed as weed survival at 4 times field recommended herbicide dose
Avena sterilis [30] = experiment: Herbicidal activity against Avena sterilis accession P08 assessed as weed survival at 8 times field recommended herbicide dose
Avena sterilis [31] = experiment: Herbicidal activity against Avena sterilis accession P19S assessed as weed survival at 1/32 times field recommended herbicide dose
Avena sterilis [32] = experiment: Herbicidal activity against Avena sterilis accession P10S assessed as weed survival at 1 times field recommended herbicide dose
Avena sterilis [33] = experiment: Herbicidal activity against Avena sterilis accession P13S assessed as weed survival at 1/32 times field recommended herbicide dose
Avena sterilis [34] = experiment: Herbicidal activity against Avena sterilis accession P05 assessed as weed survival at 4 times field recommended herbicide dose
Avena sterilis [35] = experiment: Herbicidal activity against Avena sterilis accession P20 assessed as weed survival at 4 times field recommended herbicide dose
Avena sterilis [36] = experiment: Herbicidal activity against Avena sterilis accession P14 assessed as weed survival at 32 times field recommended herbicide dose
Avena sterilis [37] = experiment: Herbicidal activity against Avena sterilis accession P03 assessed as weed survival at 8 times field recommended herbicide dose
Avena sterilis [38] = experiment: Herbicidal activity against Avena sterilis accession P06S assessed as weed survival at 1/16 times field recommended herbicide dose
Avena sterilis [39] = experiment: Herbicidal activity against Avena sterilis accession P02 assessed as weed survival at 4 times field recommended herbicide dose
Avena sterilis [40] = experiment: Herbicidal activity against Avena sterilis accession P11 assessed as weed survival at 8 times field recommended herbicide dose
Avena sterilis [41] = experiment: Herbicidal activity against Avena sterilis accession P01 assessed as induction of weed mortality
Avena sterilis [42] = experiment: Herbicidal activity against Avena sterilis accession P01 assessed as weed survival at 32 times field recommended herbicide dose
Avena sterilis [43] = experiment: Herbicidal activity against Avena sterilis accession P18 assessed as weed survival at 4 times field recommended herbicide dose
Avena sterilis [44] = experiment: Herbicidal activity against Avena sterilis accession P08 assessed as induction of weed mortality
Avena sterilis [45] = experiment: Herbicidal activity against Avena sterilis accession P04 assessed as weed survival at 4 times field recommended herbicide dose
Avena sterilis [46] = experiment: Herbicidal activity against Avena sterilis accession P03 assessed as induction of weed mortality
Avena sterilis [47] = experiment: Herbicidal activity against Avena sterilis accession P05 assessed as weed survival at 1 times field recommended herbicide dose
Avena sterilis [48] = experiment: Herbicidal activity against Avena sterilis accession P02 assessed as weed survival at 16 times field recommended herbicide dose
Avena sterilis [49] = experiment: Herbicidal activity against Avena sterilis accession P21S assessed as weed survival at 1/8 times field recommended herbicide dose
Avena sterilis [50] = experiment: Herbicidal activity against Avena sterilis accession P18 assessed as weed survival at 8 times field recommended herbicide dose
Avena sterilis [51] = experiment: Herbicidal activity against Avena sterilis accession P12 assessed as weed survival at 4 times field recommended herbicide dose
Avena sterilis [52] = experiment: Herbicidal activity against Avena sterilis accession P16 assessed as weed survival at 1 times field recommended herbicide dose
Avena sterilis [53] = experiment: Herbicidal activity against Avena sterilis accession P22 assessed as weed survival at 1 times field recommended herbicide dose
Avena sterilis [54] = experiment: Herbicidal activity against Avena sterilis accession P11 assessed as weed survival at 16 times field recommended herbicide dose
Avena sterilis [55] = experiment: Herbicidal activity against Avena sterilis accession P12 assessed as weed survival at 1 times field recommended herbicide dose
Avena sterilis [56] = experiment: Herbicidal activity against Avena sterilis accession P09 assessed as weed survival at 8 times field recommended herbicide dose
Avena sterilis [57] = experiment: Herbicidal activity against Avena sterilis accession P15 assessed as weed survival at 32 times field recommended herbicide dose
Avena sterilis [58] = experiment: Herbicidal activity against Avena sterilis accession P12 assessed as weed survival at 8 times field recommended herbicide dose

Compound: CCc1cc(C)cc(CC)c1-c1c(OC(=O)C(C)(C)C)n2n(c1=O)CCOCC2 [PINOXADEN]
- Survival (Avena sterilis [1]): 0%
- Survival (Avena sterilis [2]): 0%
- Survival (Avena sterilis [3]): 0%
- Survival (Avena sterilis [4]): 0%
- Survival (Avena sterilis [5]): 0%
- GR50 (Avena sterilis [6]): <40 gAi/ha
- Survival (Avena sterilis [7]): 0%
- Survival (Avena sterilis [8]): 0%
- Survival (Avena sterilis [9]): 100%
- GR50 (Avena sterilis [10]): <40 gAi/ha
- Survival (Avena sterilis [11]): 0%
- Survival (Avena sterilis [12]): 0%
- Survival (Avena sterilis [13]): 20%
- GR50 (Avena sterilis [14]): <40 gAi/ha
- GR50 (Avena sterilis [15]): 4.1 gAi/ha
- Survival (Avena sterilis [16]): 0%
- Survival (Avena sterilis [17]): 20%
- Survival (Avena sterilis [18]): 0%
- GR50 (Avena sterilis [19]): <40 gAi/ha
- Survival (Avena sterilis [20]): 0%
- GR50 (Avena sterilis [21]): <40 gAi/ha
- Survival (Avena sterilis [22]): 0%
- Survival (Avena sterilis [23]): 20%
- GR50 (Avena sterilis [24]): <40 gAi/ha
- Survival (Avena sterilis [25]): 0%
- GR50 (Avena sterilis [26]): <40 gAi/ha
- Survival (Avena sterilis [27]): 0%
- Survival (Avena sterilis [28]): 0%
- Survival (Avena sterilis [29]): 0%
- Survival (Avena sterilis [30]): 0%
- Survival (Avena sterilis [31]): 100%
- Survival (Avena sterilis [32]): 0%
- Survival (Avena sterilis [33]): 100%
- Survival (Avena sterilis [34]): 0%
- Survival (Avena sterilis [35]): 0%
- Survival (Avena sterilis [36]): 0%
- Survival (Avena sterilis [37]): 0%
- Survival (Avena sterilis [38]): 80%
- Survival (Avena sterilis [39]): 0%
- Survival (Avena sterilis [40]): 0%
- GR50 (Avena sterilis [41]): <40 gAi/ha
- Survival (Avena sterilis [42]): 0%
- Survival (Avena sterilis [43]): 0%
- GR50 (Avena sterilis [44]): <40 gAi/ha
- Survival (Avena sterilis [45]): 20%
- GR50 (Avena sterilis [46]): <40 gAi/ha
- Survival (Avena sterilis [47]): 20%
- Survival (Avena sterilis [48]): 0%
- Survival (Avena sterilis [49]): 57%
- Survival (Avena sterilis [50]): 0%
- Survival (Avena sterilis [51]): 0%
- Survival (Avena sterilis [52]): 0%
- Survival (Avena sterilis [53]): 20%
- Survival (Avena sterilis [54]): 0%
- Survival (Avena sterilis [55]): 0%
- Survival (Avena sterilis [56]): 0%
- Survival (Avena sterilis [57]): 0%
- Survival (Avena sterilis [58]): 0%
